Where two headings read alike, the source gives them in different places.
Assays:
Format in all cases: cell-based
[1] = tested on: MCF7-Y537S cells; experiment: In vitro anti-proliferation assay (CellTiter-Glo viability), MCF7-Y537S cells; settings: viability on day 8, relative IC50
Procedure: (§1) Test: In vitro anti-proliferation assay
(§2) Said test involves measuring the in vitro anti-proliferation activity of the compounds of the Table 1a.
(§3) The measurements of the anti-proliferation activities were made using MCF7-WT (ATCC), MCF7-Y537S and HCC1428-LTED cells as described hereunder.
(§4) On Day 1, MCF7-WT and MCF7-Y537S (Mol Cancer Ther. 2021 20(2):250-262), and HCC1428-LTED (J Clin Invest. 2010; 120(7):2406-2413) cells, were seeded at 2000 (WT and LTED) and 500 (Y537S) cells/well in phenol red free IMEM (Corning, 110-026-CV) with 5% Charcoal stripped-FBS and incubated overnight 37° C. and 5% CO2.
(§5) On day 2, compounds were tested in triplicate in 10-point dose response (1:3 serial dilutions with a top concentration starting 300 nM); DMSO for upper limit (negative control) and staurosporine (1 uM) for lower limit (positive control) were also included. MCF7-WT cells were then supplemented with final 0.1 nM b-estradiol. After treating the cells, the assay plates were transferred back in the incubator at 37° C. and 5% CO2.
(§6) On day 8, cell viability was measured per vendor recommendations (CellTiter-Glo, Promega). Relative IC50 measurements were calculated as follow using a 4-parameter logistic derived from Levenburg Marquardt algorithm (IDBS XL Model 205 fit within A-base).

[2] = tested on: MCF7-WT cells; experiment: In vitro anti-proliferation assay (CellTiter-Glo viability), MCF7-WT cells; settings: MCF7-WT cells supplemented with 0.1 nM b-estradiol, viability on day 8, relative IC50
Procedure: as §1, §2, §3, §4, §5, §6

[3] = tested on: HCC1428-LTED cells; experiment: In vitro anti-proliferation assay (CellTiter-Glo viability), HCC1428-LTED cells; settings: viability on day 8, relative IC50, read-out: HCC 1428 IC50
Procedure: as §1, §2, §3, §4, §5, §6

Structure (SMILES)	IC50 ([1]; Homo sapiens, MCF7, 192 h)	IC50 ([2]; Homo sapiens, MCF7, 192 h)	IC50 ([3]; Homo sapiens, HCC1428, 192 h)	IC50 [1]	IC50 [2]	IC50 [3]
Cc1ccc(C2=C(c3ccc(O[C@H]4CCN(C/C=C/C(=O)N(C)C)C4)cc3)c3ccc(C(=O)O)cc3CCC2)cc1Cl [Compound 7, (S,E)-8-(3-chloro-4-methylphenyl)-9-(4-((1-(4-(dimethylamino)-4-oxobut-2-en-1-yl)pyrrolidin-3-yl)oxy)phenyl)-6,7-dihydro-5H-benzo[7]annulene-3-carboxylic acid]	≥ 500 nM	28 nM	2 nM			
CN(C)C(=O)/C=C/CN1CC[C@H](Oc2ccc(C3=C(c4ccc(Cl)cc4Cl)CCCc4cc(C(=O)O)ccc43)cc2)C1 [Compound 1, (S,E)-8-(2,4-dichlorophenyl)-9-(4-((1-(4-(dimethylamino)-4-oxobut-2-en-1-yl)pyrrolidin-3-yl)oxy)phenyl)-6,7-dihydro-5H-benzo[7]annulene-3-carboxylic acid]	≥ 500 nM	14 nM	0.7 nM			
CN(C)C(=O)/C=C/CN1CC[C@H](Oc2ccc(C3=C(c4ccc(Cl)cc4Cl)CCOc4cc(C(=O)O)ccc43)cc2)C1 [Compound 24, (S,E)-4-(2,4-dichlorophenyl)-5-(4-((1-(4-(dimethylamino)-4-oxobut-2-en-1-yl)pyrrolidin-3-yl)oxy)phenyl)-2,3-dihydrobenzo[b]oxepine-8-carboxylic acid]	≥ 500 nM	160 nM	4.4 nM			
CN(C)C(=O)/C=C/CN1CC/C(=C/c2ccc(C3=C(c4ccc(Cl)cc4Cl)CCCc4cc(C(=O)O)ccc43)cc2)C1 [Compound 20, 8-(2,4-dichlorophenyl)-9-(4-((Z)-(1-((E)-4-(dimethylamino)-4-oxobut-2-en-1-yl)pyrrolidin-3-ylidene)methyl)phenyl)-6,7-dihydro-5H-benzo[7]annulene-3-carboxylic acid]	≥ 500 nM	41 nM	1 nM			
CN(C)C(=O)/C=C/CN1CCC(Cc2ccc(C3=C(c4ccc(Cl)cc4Cl)CCCc4cc(C(=O)O)ccc43)cc2)C1 (single isomer, unassigned; isomer 2) [Compound 19, (E)-8-(2,4-dichlorophenyl)-9-(4-((1-(4-(dimethylamino)-4-oxobut-2-en-1-yl)pyrrolidin-3-yl)methyl)phenyl)-6,7-dihydro-5H-benzo[7]annulene-3-carboxylic acid, Isomer 2]				20.7 nM	9 nM	0.2 nM
CN(C)C(=O)/C=C/CN1CC[C@H](Oc2ccc(C3=C(c4ccc(Cl)cc4F)CCCc4cc(C(=O)O)ccc43)cc2)C1 [Compound 3, (S,E)-8-(4-chloro-2-fluorophenyl)-9-(4-((1-(4-(dimethylamino)-4-oxobut-2-en-1-yl)pyrrolidin-3-yl)oxy)phenyl)-6,7-dihydro-5H-benzo[7]annulene-3-carboxylic acid]	167 nM	24 nM	0.7 nM			
CN(C)C(=O)/C=C/CN1CC(Cc2ccc(C3=C(c4ccc(Cl)cc4Cl)CCCc4cc(C(=O)O)ccc43)cc2)C1 [Compound 13, (E)-8-(2,4-dichlorophenyl)-9-(4-((1-(4-(dimethylamino)-4-oxobut-2-en-1-yl)azetidin-3-yl)methyl)phenyl)-6,7-dihydro-5H-benzo[7]annulene-3-carboxylic acid compound with 2,2,2-trifluoroacetic acid (1:1)]	9 nM	3 nM	0.01 nM			

Reference: patent publication US20250250231A1, “NOVEL SUBSTITUTED 4-AMINO-4-OXO-BUT-2-ENYL DERIVATIVES, PROCESSES FOR THEIR PREPARATION AND THERAPEUTIC USES THEREOF” (SANOFI, priority 2022, published 2025)
